Measured values as given in paper PMC5341858, “Molecular regulation of apoptotic machinery and lipid metabolism by mTORC1/mTORC2 dual inhibitors in preclinical models of HER2+/PIK3CAmut breast cancer” (Oncotarget, 2016).

How the values were obtained:
Test in all cases: KINOMEscan binding assay
PLK3 = biological target: T1, PLK3 (Homo sapiens, UniProt Q9H4B4); settings: 1000 nM, percent control relative to vehicle
T1 construct: purchased DiscoveRx KINOMEscan
Description: (§1) IC50 values were generated using Graphpad PRISM 5 software.

CSNK1D = biological target: T2, CSNK1D (Homo sapiens, UniProt P48730); settings: 1000 nM, percent control relative to vehicle
T2 construct: purchased DiscoveRx KINOMEscan
Description: as §1

CHEK1 = biological target: T3, CHEK1 (Homo sapiens, UniProt O14757); settings: 1000 nM, percent control relative to vehicle
T3 construct: purchased DiscoveRx KINOMEscan
Description: as §1

PAK4 = biological target: T4, PAK4 (Homo sapiens, UniProt O96013); settings: 1000 nM, percent control relative to vehicle
T4 construct: purchased DiscoveRx KINOMEscan
Description: as §1

VEGFR2 = biological target: T5, VEGFR2 (Homo sapiens, UniProt P35968); settings: 1000 nM, percent control relative to vehicle
T5 construct: purchased DiscoveRx KINOMEscan
Description: as §1

MARK3 = biological target: T6, MARK3 (Homo sapiens, UniProt P27448); settings: 1000 nM, percent control relative to vehicle
T6 construct: purchased DiscoveRx KINOMEscan
Description: as §1

CDK11 = biological target: T7, CDK11 (Homo sapiens, UniProt Q9BWU1); settings: 1000 nM, percent control relative to vehicle
T7 construct: purchased DiscoveRx KINOMEscan
Description: as §1

PIK3CB = PIK3CB (Homo sapiens, UniProt P42338)
Description: as §1

FGFR2 = biological target: T8, FGFR2 (Homo sapiens, UniProt P21802); settings: 1000 nM, percent control relative to vehicle
T8 construct: purchased DiscoveRx KINOMEscan
Description: as §1

KIT(D816V) = biological target: T9, KIT(D816V) (Homo sapiens, UniProt P10721, D816V); settings: 1000 nM, percent control relative to vehicle
T9 construct: purchased DiscoveRx KINOMEscan
Description: as §1

SNARK = biological target: T10, SNARK (Homo sapiens, UniProt Q9H093); settings: 1000 nM, percent control relative to vehicle
T10 construct: purchased DiscoveRx KINOMEscan
Description: as §1

BRAF = biological target: T11, BRAF (Homo sapiens, UniProt P15056); settings: 1000 nM, percent control relative to vehicle
T11 construct: purchased DiscoveRx KINOMEscan
Description: as §1

ABL1-phosphorylated = biological target: T12, ABL1-phosphorylated (Homo sapiens, UniProt P00519); settings: 1000 nM, percent control relative to vehicle
T12 construct: purchased DiscoveRx KINOMEscan
Description: as §1

MEK2 = biological target: T13, MEK2 (Homo sapiens, UniProt P36507); settings: 1000 nM, percent control relative to vehicle
T13 construct: purchased DiscoveRx KINOMEscan
Description: as §1

DYRK1B = biological target: T14, DYRK1B (Homo sapiens, UniProt Q9Y463); settings: 1000 nM, percent control relative to vehicle
T14 construct: purchased DiscoveRx KINOMEscan
Description: as §1

PRKCE = biological target: T15, PRKCE (Homo sapiens, UniProt Q02156); settings: 1000 nM, percent control relative to vehicle
T15 construct: purchased DiscoveRx KINOMEscan
Description: as §1

MET = biological target: T16, MET (Homo sapiens, UniProt P08581); settings: 1000 nM, percent control relative to vehicle
T16 construct: purchased DiscoveRx KINOMEscan
Description: as §1

PIM2 = biological target: T17, PIM2 (Homo sapiens, UniProt Q9P1W9); settings: 1000 nM, percent control relative to vehicle
T17 construct: purchased DiscoveRx KINOMEscan
Description: as §1

JNK1 = biological target: T18, JNK1 (Homo sapiens, UniProt P45983); settings: 1000 nM, percent control relative to vehicle
T18 construct: purchased DiscoveRx KINOMEscan
Description: as §1

INSR = biological target: T19, INSR (Homo sapiens, UniProt P06213); settings: 1000 nM, percent control relative to vehicle
T19 construct: purchased DiscoveRx KINOMEscan
Description: as §1

ERBB4 = biological target: T20, ERBB4 (Homo sapiens, UniProt Q15303); settings: 1000 nM, percent control relative to vehicle
T20 construct: purchased DiscoveRx KINOMEscan
Description: as §1

FAK = biological target: T21, FAK (Homo sapiens, UniProt Q05397); settings: 1000 nM, percent control relative to vehicle
T21 construct: purchased DiscoveRx KINOMEscan
Description: as §1

PAK2 = biological target: T22, PAK2 (Homo sapiens, UniProt Q13177); settings: 1000 nM, percent control relative to vehicle
T22 construct: purchased DiscoveRx KINOMEscan
Description: as §1

IKK-beta = biological target: T23, IKK-beta (Homo sapiens, UniProt O14920); settings: 1000 nM, percent control relative to vehicle
T23 construct: purchased DiscoveRx KINOMEscan
Description: as §1

ERK1 = biological target: T24, ERK1 (Homo sapiens, UniProt P27361); settings: 1000 nM, percent control relative to vehicle
T24 construct: purchased DiscoveRx KINOMEscan
Description: as §1

DCAMKL1 = biological target: T25, DCAMKL1 (Homo sapiens, UniProt O15075); settings: 1000 nM, percent control relative to vehicle
T25 construct: purchased DiscoveRx KINOMEscan
Description: as §1

SRC = biological target: T26, SRC (Homo sapiens, UniProt P12931); settings: 1000 nM, percent control relative to vehicle
T26 construct: purchased DiscoveRx KINOMEscan
Description: as §1

CDK7 = biological target: T27, CDK7 (Homo sapiens, UniProt P50613); settings: 1000 nM, percent control relative to vehicle
T27 construct: purchased DiscoveRx KINOMEscan
Description: as §1

CDK3 = biological target: T28, CDK3 (Homo sapiens, UniProt Q00526); settings: 1000 nM, percent control relative to vehicle
T28 construct: purchased DiscoveRx KINOMEscan
Description: as §1

p38-beta = biological target: T29, p38-beta (Homo sapiens, UniProt Q15759); settings: 1000 nM, percent control relative to vehicle
T29 construct: purchased DiscoveRx KINOMEscan
Description: as §1

MAPKAPK2 = biological target: T30, MAPKAPK2 (Homo sapiens, UniProt P49137); settings: 1000 nM, percent control relative to vehicle
T30 construct: purchased DiscoveRx KINOMEscan
Description: as §1

MAP3K4 = biological target: T31, MAP3K4 (Homo sapiens, UniProt Q9Y6R4); settings: 1000 nM, percent control relative to vehicle
T31 construct: purchased DiscoveRx KINOMEscan
Description: as §1

AURKA = biological target: T32, AURKA (Homo sapiens, UniProt O14965); settings: 1000 nM, percent control relative to vehicle
T32 construct: purchased DiscoveRx KINOMEscan
Description: as §1

MEK1 = biological target: T33, MEK1 (Homo sapiens, UniProt Q02750); settings: 1000 nM, percent control relative to vehicle
T33 construct: purchased DiscoveRx KINOMEscan
Description: as §1

KIT (V559D, T670I) = biological target: T34, KIT (V559D, T670I) (Homo sapiens, UniProt P10721, T670I/V559D); settings: 1000 nM, percent control relative to vehicle
T34 construct: purchased DiscoveRx KINOMEscan
Description: as §1

[1] = biological target: T35, ABL1 (E255K)- phosphorylated (Homo sapiens, UniProt P00519, E255K); settings: 1000 nM, percent control relative to vehicle
T35 construct: purchased DiscoveRx KINOMEscan
Description: as §1

PIK3C2B = biological target: T36, PIK3C2B (Homo sapiens, UniProt O00750); settings: 1000 nM, percent control relative to vehicle
T36 construct: purchased DiscoveRx KINOMEscan
Description: as §1

BMPR2 = biological target: T37, BMPR2 (Homo sapiens, UniProt Q13873); settings: 1000 nM, percent control relative to vehicle
T37 construct: purchased DiscoveRx KINOMEscan
Description: as §1

AKT1 = biological target: T38, AKT1 (Homo sapiens, UniProt P31749); settings: 1000 nM, percent control relative to vehicle
T38 construct: purchased DiscoveRx KINOMEscan
Description: as §1

AKT2 = biological target: T39, AKT2 (Homo sapiens, UniProt P31751); settings: 1000 nM, percent control relative to vehicle
T39 construct: purchased DiscoveRx KINOMEscan
Description: as §1

YANK3 = biological target: T40, YANK3 (Homo sapiens, UniProt Q86UX6); settings: 1000 nM, percent control relative to vehicle
T40 construct: purchased DiscoveRx KINOMEscan
Description: as §1

TIE2 = biological target: T41, TIE2 (Homo sapiens, UniProt Q02763); settings: 1000 nM, percent control relative to vehicle
T41 construct: purchased DiscoveRx KINOMEscan
Description: as §1

PKAC-alpha = biological target: T42, PKAC-alpha (Homo sapiens, UniProt P17612); settings: 1000 nM, percent control relative to vehicle
T42 construct: purchased DiscoveRx KINOMEscan
Description: as §1

T3 sequence (O14757 whole entry): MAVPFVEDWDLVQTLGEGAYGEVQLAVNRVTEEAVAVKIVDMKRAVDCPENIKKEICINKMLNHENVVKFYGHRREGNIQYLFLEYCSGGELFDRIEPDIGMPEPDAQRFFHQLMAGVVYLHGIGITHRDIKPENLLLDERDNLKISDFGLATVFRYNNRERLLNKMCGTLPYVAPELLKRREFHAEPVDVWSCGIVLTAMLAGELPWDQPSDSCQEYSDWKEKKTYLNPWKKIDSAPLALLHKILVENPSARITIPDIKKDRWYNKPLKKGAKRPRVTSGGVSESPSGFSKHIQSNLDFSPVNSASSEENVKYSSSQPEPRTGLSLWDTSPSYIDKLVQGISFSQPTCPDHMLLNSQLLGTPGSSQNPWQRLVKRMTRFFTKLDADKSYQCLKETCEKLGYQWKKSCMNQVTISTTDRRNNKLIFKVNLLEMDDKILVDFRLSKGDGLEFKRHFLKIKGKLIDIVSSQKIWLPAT
T38 sequence (P31749 whole entry): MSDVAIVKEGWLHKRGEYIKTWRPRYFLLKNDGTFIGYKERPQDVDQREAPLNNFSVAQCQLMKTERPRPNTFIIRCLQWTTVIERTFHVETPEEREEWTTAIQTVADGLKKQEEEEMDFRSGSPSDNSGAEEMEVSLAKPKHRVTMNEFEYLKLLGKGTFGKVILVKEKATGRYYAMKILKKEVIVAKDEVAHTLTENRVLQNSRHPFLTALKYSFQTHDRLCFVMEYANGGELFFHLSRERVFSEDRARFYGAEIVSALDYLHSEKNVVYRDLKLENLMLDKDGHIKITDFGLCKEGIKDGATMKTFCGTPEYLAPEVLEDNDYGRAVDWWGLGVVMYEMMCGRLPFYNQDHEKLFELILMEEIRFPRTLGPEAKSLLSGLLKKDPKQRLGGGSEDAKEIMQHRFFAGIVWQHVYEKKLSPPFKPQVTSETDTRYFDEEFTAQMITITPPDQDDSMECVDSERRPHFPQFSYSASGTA
T37 sequence (Q13873 27-1038): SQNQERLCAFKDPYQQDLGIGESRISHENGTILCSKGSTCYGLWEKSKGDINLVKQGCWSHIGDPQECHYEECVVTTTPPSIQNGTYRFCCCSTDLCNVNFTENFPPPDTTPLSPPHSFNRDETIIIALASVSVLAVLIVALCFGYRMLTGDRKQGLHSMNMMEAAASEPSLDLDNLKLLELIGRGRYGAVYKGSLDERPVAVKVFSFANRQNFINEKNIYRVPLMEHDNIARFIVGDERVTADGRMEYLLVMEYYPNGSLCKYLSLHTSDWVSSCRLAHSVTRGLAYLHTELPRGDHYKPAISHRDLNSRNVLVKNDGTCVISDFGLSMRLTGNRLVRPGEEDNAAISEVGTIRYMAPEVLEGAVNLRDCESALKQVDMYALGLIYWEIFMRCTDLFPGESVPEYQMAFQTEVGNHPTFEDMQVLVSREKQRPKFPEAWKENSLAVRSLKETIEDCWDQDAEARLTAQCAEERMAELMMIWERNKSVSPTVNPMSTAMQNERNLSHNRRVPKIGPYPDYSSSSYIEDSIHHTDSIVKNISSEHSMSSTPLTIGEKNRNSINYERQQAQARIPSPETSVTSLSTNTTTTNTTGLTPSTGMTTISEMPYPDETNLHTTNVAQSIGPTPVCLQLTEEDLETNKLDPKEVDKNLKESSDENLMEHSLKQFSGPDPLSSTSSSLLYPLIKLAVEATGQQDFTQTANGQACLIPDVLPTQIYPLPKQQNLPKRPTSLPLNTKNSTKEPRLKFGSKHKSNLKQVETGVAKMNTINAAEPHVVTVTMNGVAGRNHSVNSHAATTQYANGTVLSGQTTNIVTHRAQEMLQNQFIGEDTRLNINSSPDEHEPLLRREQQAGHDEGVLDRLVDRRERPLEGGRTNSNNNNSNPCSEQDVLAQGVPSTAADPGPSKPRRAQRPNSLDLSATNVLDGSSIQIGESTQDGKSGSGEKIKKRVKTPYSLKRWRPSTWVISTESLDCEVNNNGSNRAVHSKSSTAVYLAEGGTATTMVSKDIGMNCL
Chain of PIK3CB (P42338 whole entry): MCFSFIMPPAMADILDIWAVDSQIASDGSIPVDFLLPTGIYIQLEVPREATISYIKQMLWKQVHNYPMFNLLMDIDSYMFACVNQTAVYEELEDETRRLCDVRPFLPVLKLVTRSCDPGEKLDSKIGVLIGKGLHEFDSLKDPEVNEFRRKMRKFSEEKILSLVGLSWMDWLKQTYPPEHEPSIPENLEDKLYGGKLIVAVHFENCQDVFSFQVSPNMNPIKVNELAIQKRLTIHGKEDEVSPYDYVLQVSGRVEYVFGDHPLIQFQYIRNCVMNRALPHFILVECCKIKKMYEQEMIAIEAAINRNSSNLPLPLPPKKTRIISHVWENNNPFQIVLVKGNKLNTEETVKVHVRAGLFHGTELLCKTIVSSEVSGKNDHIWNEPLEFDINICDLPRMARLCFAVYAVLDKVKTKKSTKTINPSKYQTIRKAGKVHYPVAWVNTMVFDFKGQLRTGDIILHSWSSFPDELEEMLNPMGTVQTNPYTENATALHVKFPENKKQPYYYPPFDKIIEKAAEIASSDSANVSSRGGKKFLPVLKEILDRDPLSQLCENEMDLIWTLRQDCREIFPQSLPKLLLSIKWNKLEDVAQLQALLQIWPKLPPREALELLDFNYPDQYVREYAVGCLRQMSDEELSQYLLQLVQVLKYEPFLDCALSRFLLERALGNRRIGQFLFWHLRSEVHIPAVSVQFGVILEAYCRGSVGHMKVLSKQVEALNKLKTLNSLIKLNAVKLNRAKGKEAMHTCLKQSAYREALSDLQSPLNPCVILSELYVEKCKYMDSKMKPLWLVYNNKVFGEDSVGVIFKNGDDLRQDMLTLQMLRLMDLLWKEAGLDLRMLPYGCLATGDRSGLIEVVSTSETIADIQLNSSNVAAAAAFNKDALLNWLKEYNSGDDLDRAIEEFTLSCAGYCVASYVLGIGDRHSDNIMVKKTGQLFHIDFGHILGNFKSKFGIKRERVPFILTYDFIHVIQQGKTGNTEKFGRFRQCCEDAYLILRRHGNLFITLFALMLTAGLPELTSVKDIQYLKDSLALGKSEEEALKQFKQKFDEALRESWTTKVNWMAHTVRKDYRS
T41 sequence (Q02763 23-1124): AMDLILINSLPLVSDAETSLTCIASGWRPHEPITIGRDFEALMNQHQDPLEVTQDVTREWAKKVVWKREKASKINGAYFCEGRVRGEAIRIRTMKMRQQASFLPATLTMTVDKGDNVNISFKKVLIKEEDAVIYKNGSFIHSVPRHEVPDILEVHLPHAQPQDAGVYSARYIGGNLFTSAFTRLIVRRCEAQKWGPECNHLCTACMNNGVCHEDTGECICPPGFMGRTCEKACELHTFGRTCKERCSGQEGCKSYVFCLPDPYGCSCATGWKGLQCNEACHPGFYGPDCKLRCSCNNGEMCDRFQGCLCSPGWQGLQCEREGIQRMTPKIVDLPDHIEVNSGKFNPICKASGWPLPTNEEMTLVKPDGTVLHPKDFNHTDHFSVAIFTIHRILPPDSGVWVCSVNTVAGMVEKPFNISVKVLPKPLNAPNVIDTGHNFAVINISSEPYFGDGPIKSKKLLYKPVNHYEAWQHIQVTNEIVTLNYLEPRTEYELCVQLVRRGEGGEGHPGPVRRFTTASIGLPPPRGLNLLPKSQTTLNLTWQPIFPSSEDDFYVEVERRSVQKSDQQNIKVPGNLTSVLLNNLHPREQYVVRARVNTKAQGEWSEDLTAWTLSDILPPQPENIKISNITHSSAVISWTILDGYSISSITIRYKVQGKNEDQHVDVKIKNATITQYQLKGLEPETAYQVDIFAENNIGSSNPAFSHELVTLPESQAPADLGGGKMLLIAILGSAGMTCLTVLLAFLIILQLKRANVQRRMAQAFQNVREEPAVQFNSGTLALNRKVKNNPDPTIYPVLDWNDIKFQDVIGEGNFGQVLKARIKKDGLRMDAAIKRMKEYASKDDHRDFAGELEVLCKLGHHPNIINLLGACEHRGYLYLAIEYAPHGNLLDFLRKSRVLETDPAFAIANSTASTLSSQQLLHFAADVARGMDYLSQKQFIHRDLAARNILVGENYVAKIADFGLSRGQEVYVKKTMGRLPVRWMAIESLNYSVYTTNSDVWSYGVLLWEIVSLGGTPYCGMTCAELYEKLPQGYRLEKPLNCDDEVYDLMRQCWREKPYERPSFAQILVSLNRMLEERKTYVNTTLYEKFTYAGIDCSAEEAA
T18 sequence (P45983 whole entry): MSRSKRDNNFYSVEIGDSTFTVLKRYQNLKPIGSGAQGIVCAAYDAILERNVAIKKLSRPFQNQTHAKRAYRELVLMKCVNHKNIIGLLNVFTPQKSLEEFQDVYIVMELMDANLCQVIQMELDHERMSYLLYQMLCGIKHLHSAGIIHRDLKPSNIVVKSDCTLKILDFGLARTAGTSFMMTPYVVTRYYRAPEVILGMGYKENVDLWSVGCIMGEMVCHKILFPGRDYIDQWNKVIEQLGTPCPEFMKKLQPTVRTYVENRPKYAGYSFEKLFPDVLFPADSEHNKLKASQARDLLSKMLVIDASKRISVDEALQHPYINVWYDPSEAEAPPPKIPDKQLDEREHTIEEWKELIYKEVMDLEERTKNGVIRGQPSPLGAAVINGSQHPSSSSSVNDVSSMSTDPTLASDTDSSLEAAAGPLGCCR
T17 sequence (Q9P1W9 whole entry): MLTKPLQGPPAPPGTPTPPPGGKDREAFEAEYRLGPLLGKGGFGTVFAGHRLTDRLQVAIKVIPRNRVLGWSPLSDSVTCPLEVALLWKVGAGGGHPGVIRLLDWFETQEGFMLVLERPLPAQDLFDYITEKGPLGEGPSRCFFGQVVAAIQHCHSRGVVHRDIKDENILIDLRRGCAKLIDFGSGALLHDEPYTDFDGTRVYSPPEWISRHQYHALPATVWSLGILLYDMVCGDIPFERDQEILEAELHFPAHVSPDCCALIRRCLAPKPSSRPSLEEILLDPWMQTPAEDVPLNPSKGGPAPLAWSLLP

CNC(=O)c1cccc(-c2ccc3c(N4C5CCC4COC5)nc(N4CCOC[C@@H]4C)nc3n2)c1 [MTI-31]
% Control (PLK3): 92%
% Control (CSNK1D): 80%
% Control (CHEK1): 83%
% Control (PAK4): 100%
% Control (VEGFR2): 98%
% Control (MARK3): 71%
% Control (CDK11): 100%
Kd (PIK3CB): > 1000 nM
% Control (FGFR2): 100%
% Control (KIT(D816V)): 97%
% Control (SNARK): 89%
% Control (BRAF): 80%
% Control (ABL1-phosphorylated): 70%
% Control (MEK2): 75%
% Control (DYRK1B): 100%
% Control (PRKCE): 91%
% Control (MET): 100%
% Control (PIM2): 92%
% Control (JNK1): 81%
% Control (INSR): 100%
% Control (ERBB4): 100%
% Control (FAK): 89%
% Control (PAK2): 94%
% Control (IKK-beta): 69%
% Control (ERK1): 100%
% Control (DCAMKL1): 76%
% Control (SRC): 100%
% Control (CDK7): 99%
% Control (CDK3): 99%
% Control (p38-beta): 100%
% Control (MAPKAPK2): 87%
% Control (MAP3K4): 100%
% Control (AURKA): 97%
% Control (MEK1): 73%
% Control (KIT (V559D, T670I)): 100%
% Control [1]: 78%
% Control (PIK3C2B): 100%
% Control (BMPR2): 88%
% Control (AKT1): 100%
% Control (AKT2): 94%
% Control (YANK3): 85%
% Control (TIE2): 100%
% Control (PKAC-alpha): 98%
